Source: patent US11903959B2 (EMORY UNIVERSITY, priority 2017, dated 2024)
Where “and” joins values, the source holds several entries; their conditions need not be identical. Identical values can stand only once. Like-named read-outs stand apart in the source and are kept apart here.

Key:
Pichinde virus = experiment: microbe, parasite or virus in culture; type: cell-based; conditions: Vero, Vero cells
Lassa fever virus = experiment: organism not typed; type: cell-based; conditions: Vero
EEEV = experiment: microbe, parasite or virus in culture; type: cell-based; conditions: Eastern equine encephalitis virus
CHIKV = experiment: microbe, parasite or virus in culture; type: cell-based, Chikungunya virus
WNV = experiment: microbe, parasite or virus in culture; type: cell-based; conditions: West Nile virus, Vero 76
YFV = experiment: microbe, parasite or virus in culture; type: cell-based; conditions: Yellow fever virus, Vero 76
RVFV = experiment: microbe, parasite or virus in culture; type: cell-based; conditions: Rift Valley fever virus, Vero
Punta Toro virus = experiment: microbe, parasite or virus in culture; type: cell-based
Maporal virus = experiment: microbe, parasite or virus in culture; type: cell-based
Heartland virus = experiment: microbe, parasite or virus in culture; type: cell-based; conditions: Vero
HCoV = experiment: microbe, parasite or virus in culture; type: cell-based; conditions: unidentified human coronavirus, Vero C1008
Flu A H3N2 = experiment: microbe, parasite or virus in culture; type: cell-based, influenza A virus
EBOV = experiment: microbe, parasite or virus in culture; type: cell-based, Ebola virus; conditions: Zaire ebolavirus, Vero
Enterovirus-68 = type: cell-based
Poliovirus -1 = experiment: microbe, parasite or virus in culture; type: cell-based; conditions: Enterovirus C, Vero 76, Poliovirus -1, Vero76 cells
HRV-14 = experiment: microbe, parasite or virus in culture; type: cell-based
CEM cells = type: cell-based; conditions: CEM cells (lowest of the range)
[1] = rat, in vivo, po, 50 mg/kg
[2] = mouse, in vivo
[3] = female, in vivo, po
[4] = system: pestivirus and hepacivirus; conditions: Stuyver et al., Antimicrob Agents Chemother, 2003; cited from earlier work
in vivo = conditions: dog, 140 mg/kg
[5] = Cytotoxicity (CC50) run with antiviral assays, HG23 cells; conditions: human
[6] = Cytotoxicity (CC50) run with antiviral assays, MA-104 cells; conditions: African green monkey, CC50, MA-104 cells, Parainfluenza and RSV table
[7] = Plasma pharmacokinetics in mice after a single dose of EIDD-2800; conditions: ICR (CD-1), mouse, oral, 180 mg/kg

`O=c1nc(NO)ccn1C1OC(CO)C(O)C1O` (centres unmarked) [EIDD-1931, 1-(3,4-dihydroxy-5-(hydroxymethyl)tetrahydrofuran-2-yl)-4-(hydroxyamino)pyrimidin-2-one] gave an EC50 (Pichinde virus) of 18400 nM, an EC50 (Lassa fever virus) of 4040 nM and an EC90 (EEEV; Vero 76) of 1680 nM. It also gave an EC50 (EEEV; Vero, EEE virus, Vero cell cytopathic effect (CPE) model) of 1080 nM, an EC50 (CHIKV) of 1800 nM and an EC50 (CHIKV; Chikungunya virus, Vero) of 1280 nM. It also gave an EC50 (WNV) of over 400000 nM, an EC90 (YFV) of 26000 nM and an EC90 (RVFV) of 1000 nM. It also gave an EC50 (RVFV; RVFV, Vero cells) of 1680 nM, an EC50 (Punta Toro virus) of 20400 nM and an EC50 (Punta Toro virus; Punta Toro virus, Vero 76) of 20000 nM. It also gave an EC50 (Maporal virus) of over 124000 nM, an EC50 (Maporal virus; Maporal virus, Vero 76) of 84000 nM and an EC90 (Heartland virus) of 7840 nM. It also gave an EC50 (HCoV) of under 400 nM, an EC50 (Flu A H3N2) of 880 nM and an EC50 (Flu A H3N2; Influenza A virus, H3N2, MDCK) of 960 nM. The EC50 (EBOV) was 4700 nM, the EC90 (EBOV) was 25000 nM and the EC50 (Enterovirus-68) was 1280 nM and 1160 nM. It also gave an EC50 (Poliovirus -1) of 12800 nM, an EC50 (HRV-14) of 1360 nM and an EC50 (HRV-14; Rhinovirus B, HRV14) of 1280 nM. The selectivity index (CEM cells) was 8, the “calculated bioavailability (% F)” value ([1]; male, Sprague-Dawley (SD)) was 28% and the tissue distribution [1] was “well distributed into all tissues tested”. For the same compound, the body weight [2] was “weight loss was observed”, the t1/2 ([3]; 4 mg/kg) was 8.2 ± 1.7 h and the t1/2 ([3]; 20 mg/kg) was 4.7 ± 1.3 h. For the same compound, the t1/2 ([3]; outbred, 128 mg/kg) was 5.1 ± 0.8 h, the t1/2 ([3]; outbred, 512 mg/kg) was 4.2 ± 0.6 h and the “AUC0->t” value (Vero cells) was 228.6 pmol · h/M cells. The antiviral activities [4] was “antipestivirus and antihepacivirus activities”, the Cmax (in vivo) was 113 ± 21.1 µM and the half-life (in vivo) was 4.8 ± 1 h. For the same compound, the CC50 [5] was over 100000 nM, the CC50 [6] was 272000 nM and the AUC(0-inf) [7] was 42.5 µM·h. It also gave a Cmax [7] of 11.4 µM and a tmax [7] of 0.5 h.
